Source: ChEMBL document CHEMBL4138123, “Design, synthesis and biological evaluation of novel pyrazolochalcones as potential modulators of PI3K/Akt/mTOR pathway and inducers of apoptosis in breast cancer cells” (Eur J Med Chem, 2017)

Assays:
Assay type in all cases: functional
[1] = test system: 786-0; test: Cytotoxicity against human 786-0 cells assessed as cell growth at 10 uM after 48 hrs by sulforhodamine B assay relative to control; conditions: 786-0, 48 h, read-out: Activity
[2] = test system: MDA-MB-231; test: Cytotoxicity against human MDA-MB-231 cells assessed as cell growth at 1 uM after 48 hrs by sulforhodamine B assay relative to control; conditions: MDA-MB-231, 48 h, read-out: Activity
[3] = test system: OVCAR-4; test: Cytotoxicity against human OVCAR4 cells assessed as growth inhibition after 48 hrs by sulforhodamine B assay; conditions: OVCAR-4, 48 h
[4] = test system: MCF7; test: Cytotoxicity against human MCF7 cells assessed as cell growth at 10 uM after 48 hrs by sulforhodamine B assay relative to control; conditions: MCF7, 48 h, read-out: Activity
[5] = test system: UO-31; test: Cytotoxicity against human UO31 cells assessed as cell growth at 100 uM after 48 hrs by sulforhodamine B assay relative to control; conditions: UO-31, 48 h, read-out: Activity
[6] = test system: IGROV-1; test: Cytotoxicity against human IGROV1 cells assessed as cell growth at 0.01 uM after 48 hrs by sulforhodamine B assay relative to control; conditions: IGROV-1, 48 h, read-out: Activity
[7] = test system: A498; test: Cytotoxicity against human A498 cells assessed as cell growth at 1 uM after 48 hrs by sulforhodamine B assay relative to control; conditions: A498, 48 h, read-out: Activity
[8] = test system: 786-0; test: Cytotoxicity against human 786-0 cells assessed as growth inhibition after 48 hrs by sulforhodamine B assay; conditions: 786-0, 48 h
[9] = test system: MDA-MB-231; test: Cytotoxicity against human MDA-MB-231 cells assessed as growth inhibition after 48 hrs by sulforhodamine B assay; conditions: MDA-MB-231, 48 h
[10] = test system: HL-60(TB); test: Cytotoxicity against human HL-60(TB) cells assessed as cell growth at 0.1 uM after 48 hrs by sulforhodamine B assay relative to control; conditions: HL-60, 48 h, read-out: Activity
[11] = test system: NCI-H23; test: Cytotoxicity against human NCI-H23 cells assessed as cell growth at 100 uM after 48 hrs by sulforhodamine B assay relative to control; conditions: NCI-H23, 48 h, read-out: Activity
[12] = test system: NCI-H322M; test: Cytotoxicity against human NCI-H322M cells assessed as cell growth at 0.01 uM after 48 hrs by sulforhodamine B assay relative to control; conditions: read-out: Activity
[13] = test system: SF-539; test: Cytotoxicity against human SF539 cells assessed as cell growth at 100 uM after 48 hrs by sulforhodamine B assay relative to control; conditions: SF-539, 48 h, read-out: Activity
[14] = test system: OVCAR-3; test: Cytotoxicity against human OVCAR3 cells assessed as cell growth at 1 uM after 48 hrs by sulforhodamine B assay relative to control; conditions: OVCAR-3, 48 h, read-out: Activity
[15] = test system: MCF7; test: Cytotoxicity against human MCF7 cells assessed as cell growth at 1 uM after 48 hrs by sulforhodamine B assay relative to control; conditions: MCF7, 48 h, read-out: Activity
[16] = test system: Malme-3M; test: Cytotoxicity against human MALME-3M cells assessed as growth inhibition after 48 hrs by sulforhodamine B assay
[17] = test system: MOLT-4; test: Cytotoxicity against human MOLT4 cells assessed as cell growth at 1 uM after 48 hrs by sulforhodamine B assay relative to control; conditions: MOLT-4, 48 h, read-out: Activity
[18] = test system: HCT-15; test: Cytotoxicity against human HCT15 cells assessed as cell growth at 1 uM after 48 hrs by sulforhodamine B assay relative to control; conditions: HCT-15, 48 h, read-out: Activity
[19] = test system: PC-3; test: Cytotoxicity against human PC3 cells assessed as cell growth at 100 uM after 48 hrs by sulforhodamine B assay relative to control; conditions: PC-3, 48 h, read-out: Activity
[20] = test system: A549; test: Cytotoxicity against human A549/ATCC cells assessed as cell growth at 0.1 uM after 48 hrs by sulforhodamine B assay relative to control; conditions: A549, 48 h, read-out: Activity
[21] = test system: UACC-62; test: Cytotoxicity against human UACC62 cells assessed as cell growth at 10 uM after 48 hrs by sulforhodamine B assay relative to control; conditions: UACC-62, 48 h, read-out: Activity
[22] = test system: M14; test: Cytotoxicity against human M14 cells assessed as cell growth at 0.1 uM after 48 hrs by sulforhodamine B assay relative to control; conditions: M14, 48 h, read-out: Activity
[23] = test system: MCF7; test: Cytotoxicity against human MCF7 cells assessed as cell growth at 0.1 uM after 48 hrs by sulforhodamine B assay relative to control; conditions: MCF7, 48 h, read-out: Activity
[24] = test system: SNB-19; test: Cytotoxicity against human SNB19 cells assessed as cell growth at 1 uM after 48 hrs by sulforhodamine B assay relative to control; conditions: SNB-19, 48 h, read-out: Activity
[25] = test system: TK-10; test: Cytotoxicity against human TK10 cells assessed as cell growth at 10 uM after 48 hrs by sulforhodamine B assay relative to control; conditions: TK-10, 48 h, read-out: Activity
[26] = test system: NCI-H522; test: Cytotoxicity against human NCI-H522 cells assessed as cell growth at 0.1 uM after 48 hrs by sulforhodamine B assay relative to control; conditions: NCI-H522, 48 h, read-out: Activity
[27] = test system: UACC-257; test: Cytotoxicity against human UACC257 cells assessed as cell growth at 0.01 uM after 48 hrs by sulforhodamine B assay relative to control; conditions: UACC-257, 48 h, read-out: Activity
[28] = test system: HCC 2998; test: Cytotoxicity against human HCC2998 cells assessed as cell growth at 10 uM after 48 hrs by sulforhodamine B assay relative to control; conditions: HCC 2998, 48 h, read-out: Activity
[29] = test system: Hs-578T; test: Cytotoxicity against human Hs 578T cells assessed as cell growth at 0.1 uM after 48 hrs by sulforhodamine B assay relative to control; conditions: read-out: Activity
[30] = test system: SK-OV-3; test: Cytotoxicity against human SKOV3 cells assessed as growth inhibition after 48 hrs by sulforhodamine B assay; conditions: SK-OV-3, 48 h
[31] = test system: NCI-H23; test: Cytotoxicity against human NCI-H23 cells assessed as cell growth at 10 uM after 48 hrs by sulforhodamine B assay relative to control; conditions: NCI-H23, 48 h, read-out: Activity
[32] = test system: SF-268; test: Cytotoxicity against human SF268 cells assessed as cell growth at 100 uM after 48 hrs by sulforhodamine B assay relative to control; conditions: SF-268, 48 h, read-out: Activity
[33] = test system: RXF 393; test: Cytotoxicity against human RXF393 cells assessed as cell growth at 1 uM after 48 hrs by sulforhodamine B assay relative to control; conditions: RXF 393, 48 h, read-out: Activity
[34] = test system: K562; test: Cytotoxicity against human K562 cells assessed as cell growth at 0.1 uM after 48 hrs by sulforhodamine B assay relative to control; conditions: K562, 48 h, read-out: Activity
[35] = test system: SK-OV-3; test: Cytotoxicity against human SKOV3 cells assessed as cell growth at 100 uM after 48 hrs by sulforhodamine B assay relative to control; conditions: SK-OV-3, 48 h, read-out: Activity

`COc1cc(C(=O)/C=C/c2cc(-c3ccc4c(c3)OCO4)n[nH]2)cc(OC)c1OC` was tested, and the growth at 10 µM [1] was -84%, the growth at 1 µM [2] was 83% and the GI50 [3] was 0.88 µM. The LC50 [3] was 20.1 µM, the TGI [3] was 4.24 µM and the growth at 10 µM [4] was -62%. It also gave a growth at 100 µM [5] of -95%, a growth at 0.01 µM [6] of 101% and a growth at 1 µM [7] of 79%. The GI50 [8] was 1.84 µM, the LC50 [8] was 6.51 µM and the TGI [8] was 3.46 µM. The GI50 [9] was 2.08 µM, the LC50 [9] was 23.8 µM and the TGI [9] was 6.23 µM. The growth at 0.1 µM [10] was 98%, the growth at 100 µM [11] was -83% and the growth at 0.01 µM [12] was 101%. The growth at 100 µM [13] was -85%, the growth at 1 µM [14] was 87% and the growth at 1 µM [15] was 53%. It also gave a GI50 [16] of 1.85 µM, an LC50 [16] of 15.3 µM and a TGI [16] of 4.69 µM. It also gave a growth at 1 µM [17] of 94%, a growth at 1 µM [18] of 77% and a growth at 100 µM [19] of -84%. The growth at 0.1 µM [20] was 98%, the growth at 10 µM [21] was -62% and the growth at 0.1 µM [22] was 93%. It also gave a growth at 0.1 µM [23] of 94%, a growth at 1 µM [24] of 75% and a growth at 10 µM [25] of -18%. The growth at 0.1 µM [26] was 90%, the growth at 0.01 µM [27] was 98% and the growth at 10 µM [28] was -64%. For the same compound, the growth at 0.1 µM [29] was 90%, the GI50 [30] was 4.44 µM and the LC50 [30] was 38.8 µM. For the same compound, the TGI [30] was 14.6 µM, the growth at 10 µM [31] was 1% and the growth at 100 µM [32] was -89%. It also gave a growth at 1 µM [33] of 67%, a growth at 0.1 µM [34] of 84% and a growth at 100 µM [35] of -98%.

`COc1ccc(C(=O)/C=C/c2cc(-c3cc(OC)c(OC)c(OC)c3)n[nH]2)cc1` showed a growth at 10 µM [1] of -59%, a growth at 1 µM [2] of 81% and an LC50 [3] of over 100 µM. The TGI [3] was 8.32 µM, the growth at 10 µM [4] was -64% and the growth at 100 µM [5] was -79%. For the same compound, the growth at 0.01 µM [6] was 101%, the growth at 1 µM [7] was 84% and the TGI [8] was 4.13 µM. It also gave an LC50 [9] of over 100 µM, a growth at 0.1 µM [10] of 108% and a growth at 100 µM [11] of -23%. The growth at 0.01 µM [12] was 92%, the growth at 100 µM [13] was -92% and the growth at 1 µM [14] was 89%. The growth at 1 µM [15] was 57%, the TGI [16] was 3.85 µM and the growth at 1 µM [17] was 102%. For the same compound, the growth at 1 µM [18] was 72%, the growth at 100 µM [19] was 1% and the growth at 0.1 µM [20] was 101%. For the same compound, the growth at 10 µM [21] was -74%, the growth at 0.1 µM [22] was 97% and the growth at 0.1 µM [23] was 93%. The growth at 1 µM [24] was 79%, the growth at 10 µM [25] was -29% and the growth at 0.1 µM [26] was 87%. The growth at 0.01 µM [27] was 97%, the growth at 10 µM [28] was -83% and the growth at 0.1 µM [29] was 100%. For the same compound, the LC50 [30] was over 100 µM, the TGI [30] was 20.5 µM and the growth at 10 µM [31] was 2%. It also gave a growth at 100 µM [32] of -37%, a growth at 1 µM [33] of 67% and a growth at 0.1 µM [34] of 102%. It also gave a growth at 100 µM [35] of -41%.

`COc1cc(-c2cc(/C=C/C(=O)c3ccc(F)c(F)c3)[nH]n2)cc(OC)c1OC` was tested, and the growth at 10 µM [1] was 11%, the growth at 1 µM [2] was 74% and the LC50 [3] was over 100 µM. For the same compound, the TGI [3] was 71.8 µM, the growth at 10 µM [4] was 2% and the growth at 100 µM [5] was -16%. For the same compound, the growth at 0.01 µM [6] was 97%, the growth at 1 µM [7] was 81% and the LC50 [8] was over 100 µM. The TGI [8] was 15.7 µM, the LC50 [9] was over 100 µM and the TGI [9] was 4.58 µM. It also gave a growth at 0.1 µM [10] of 93%, a growth at 100 µM [11] of -27% and a growth at 0.01 µM [12] of 94%. For the same compound, the growth at 100 µM [13] was -63%, the growth at 1 µM [14] was 95% and the growth at 1 µM [15] was 99%. For the same compound, the LC50 [16] was over 100 µM, the TGI [16] was 9.4 µM and the growth at 1 µM [17] was 91%. It also gave a growth at 1 µM [18] of 88%, a growth at 100 µM [19] of -41% and a growth at 0.1 µM [20] of 98%. For the same compound, the growth at 10 µM [21] was -13%, the growth at 0.1 µM [22] was 91% and the growth at 0.1 µM [23] was 98%. The growth at 1 µM [24] was 82%, the growth at 10 µM [25] was -13% and the growth at 0.1 µM [26] was 99%. The growth at 0.01 µM [27] was 88%, the growth at 10 µM [28] was 13% and the growth at 0.1 µM [29] was 97%. The LC50 [30] was over 100 µM, the TGI [30] was 58.6 µM and the growth at 10 µM [31] was -7%. It also gave a growth at 100 µM [32] of 1%, a growth at 1 µM [33] of 82% and a growth at 0.1 µM [34] of 109%. For the same compound, the growth at 100 µM [35] was -5%.
